Measured values: the supplement of paper PMC10307832

Each cell line was assayed with CC(C)CCN1c2nc(Nc3cc(F)c(O)c(F)c3)ncc2N(C)C(=O)C1C [BI-D1870] + CS(=O)(=O)N1CCN(Cc2cc3nc(-c4cccc5[nH]ncc45)nc(N4CCOCC4)c3s2)CC1 [Pictilisib] (partner 1 µM) (assay: relative viability (nuclei count vs DMSO), 5 days (fraction); higher = more cells survive). Settings: first compound 0.04 µM.
Summary of the method: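 Lung cancer cell lines in 1536-well plates were dosed by pin tool the day after seeding, either with one drug alone or with a fixed anchor-drug dose plus five library-drug doses (not always all listed) in √10 steps. After 5 days, cells were fixed and their nuclei stained in one step (final 0.05% Triton X-100, 1% formaldehyde, 1 ug/ml Hoechst), then counted on 4× images. Relative viability is the nuclei count in treated wells divided by that in vehicle wells. Values are medians of duplicate plates.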

Q: For Calu-6, which relative viability is on record?
A: 1.03

Q: How did the relative viability turn out when HCC-366 was run?
A: 0.157

Q: NCI-H1666 was tested. Which relative viability did it give?
A: 0.655

Q: With NCI-H596 as the cell line, how does the relative viability read?
A: 0.388

Q: For LK-2, which relative viability is on record?
A: 0.557

Q: Which relative viability does the source give for NCI-H2087 here?
A: 0.963

Q: How did the relative viability turn out when SK-MES-1 was run?
A: 0.345

Q: H3255 was tested. Which relative viability did it give?
A: 0.505

Q: For COR-L23, which relative viability is on record?
A: 1.08

Q: With COR-L 105 as the cell line, how does the relative viability read?
A: 0.4

Q: Which relative viability does the source give for IA-LM here?
A: 0.406

Q: Which relative viability does the source give for LOU-NH91 here?
A: 0.413

Q: With NCI-H2170 as the cell line, how does the relative viability read?
A: 0.287

Q: With NCI-H2405 as the cell line, how does the relative viability read?
A: 0.549

Q: HOP-62 was tested. Which relative viability did it give?
A: 0.606

Q: HCC-44 was tested. Which relative viability did it give?
A: 0.651

Q: A549 was tested. Which relative viability did it give?
A: 0.725

Q: With LU99A as the cell line, how does the relative viability read?
A: 0.368

Q: For BEN, which relative viability is on record?
A: 0.56

Q: For HARA, which relative viability is on record?
A: 0.597

Q: How did the relative viability turn out when HCC-78 was run?
A: 0.213

Q: For NCI-H322M, which relative viability is on record?
A: 0.579

Q: For LCLC-97TM1, which relative viability is on record?
A: 0.183

Q: How did the relative viability turn out when NCI-H2009 was run?
A: 0.949

Q: How did the relative viability turn out when A-427 was run?
A: 0.824

Q: NCI-H661 was tested. Which relative viability did it give?
A: 0.377

Q: For NCI-H1734, which relative viability is on record?
A: 0.5

Q: With NCI-H460 as the cell line, how does the relative viability read?
A: 0.437

Q: With NCI-H2347 as the cell line, how does the relative viability read?
A: 0.797

Q: For SK-LU-1, which relative viability is on record?
A: 0.543

Q: For NCI-H1395, which relative viability is on record?
A: 0.684

Same assay, conditions: first compound 0.1265 µM

Q: NCI-H2085 was tested. Which relative viability did it give?
A: 0.494

Q: How did the relative viability turn out when Calu-6 was run?
A: 0.82

Q: HCC-366 was tested. Which relative viability did it give?
A: 0.159

Q: Which relative viability does the source give for NCI-H1666 here?
A: 0.442

Q: For NCI-H596, which relative viability is on record?
A: 0.402

Q: How did the relative viability turn out when LK-2 was run?
A: 0.484

Q: With NCI-H2087 as the cell line, how does the relative viability read?
A: 0.867

Q: With SK-MES-1 as the cell line, how does the relative viability read?
A: 0.332

Q: Which relative viability does the source give for H3255 here?
A: 0.458

Q: For COR-L23, which relative viability is on record?
A: 0.695

Q: With COR-L 105 as the cell line, how does the relative viability read?
A: 0.405

Q: For IA-LM, which relative viability is on record?
A: 0.294

Q: LOU-NH91 was tested. Which relative viability did it give?
A: 0.503

Q: NCI-H2170 was tested. Which relative viability did it give?
A: 0.333

Q: Which relative viability does the source give for NCI-H2405 here?
A: 0.479

Q: How did the relative viability turn out when HOP-62 was run?
A: 0.745

Q: For HCC-44, which relative viability is on record?
A: 0.498

Q: Which relative viability does the source give for A549 here?
A: 0.499

Q: Which relative viability does the source give for LU99A here?
A: 0.253

Q: Which relative viability does the source give for BEN here?
A: 0.608

Q: Which relative viability does the source give for HARA here?
A: 0.314

Q: With HCC-78 as the cell line, how does the relative viability read?
A: 0.185

Q: NCI-H322M was tested. Which relative viability did it give?
A: 0.526

Q: LCLC-97TM1 was tested. Which relative viability did it give?
A: 0.151

Q: NCI-H2009 was tested. Which relative viability did it give?
A: 0.77

Q: Which relative viability does the source give for A-427 here?
A: 0.553

Q: For NCI-H661, which relative viability is on record?
A: 0.44

Q: With NCI-H1734 as the cell line, how does the relative viability read?
A: 0.401

Q: NCI-H460 was tested. Which relative viability did it give?
A: 0.364

Q: NCI-H2347 was tested. Which relative viability did it give?
A: 0.466

Q: SK-LU-1 was tested. Which relative viability did it give?
A: 0.544

Q: With NCI-H1395 as the cell line, how does the relative viability read?
A: 0.588

Same assay, conditions: first compound 0.4 µM

Q: For NCI-H2085, which relative viability is on record?
A: 0.413

Q: How did the relative viability turn out when Calu-6 was run?
A: 0.868

Q: How did the relative viability turn out when HCC-366 was run?
A: 0.0753

Q: NCI-H1666 was tested. Which relative viability did it give?
A: 0.409

Q: For NCI-H596, which relative viability is on record?
A: 0.385

Q: With LK-2 as the cell line, how does the relative viability read?
A: 0.535

Q: For NCI-H2087, which relative viability is on record?
A: 0.86

Q: Which relative viability does the source give for SK-MES-1 here?
A: 0.291

Q: H3255 was tested. Which relative viability did it give?
A: 0.451

Q: COR-L23 was tested. Which relative viability did it give?
A: 0.743

Q: For COR-L 105, which relative viability is on record?
A: 0.407

Q: How did the relative viability turn out when IA-LM was run?
A: 0.268

Q: LOU-NH91 was tested. Which relative viability did it give?
A: 0.504

Q: NCI-H2170 was tested. Which relative viability did it give?
A: 0.347

Q: Which relative viability does the source give for NCI-H2405 here?
A: 0.442

Q: For HOP-62, which relative viability is on record?
A: 0.726

Q: HCC-44 was tested. Which relative viability did it give?
A: 0.617

Q: With A549 as the cell line, how does the relative viability read?
A: 0.369

Q: For LU99A, which relative viability is on record?
A: 0.319

Q: With BEN as the cell line, how does the relative viability read?
A: 0.566

Q: With HARA as the cell line, how does the relative viability read?
A: 0.458

Q: Which relative viability does the source give for HCC-78 here?
A: 0.249

Q: How did the relative viability turn out when NCI-H322M was run?
A: 0.411

Q: LCLC-97TM1 was tested. Which relative viability did it give?
A: 0.175

Q: Which relative viability does the source give for NCI-H2009 here?
A: 0.719

Q: Which relative viability does the source give for A-427 here?
A: 0.689

Q: Which relative viability does the source give for NCI-H661 here?
A: 0.36

Q: Which relative viability does the source give for NCI-H1734 here?
A: 0.434

Q: For NCI-H460, which relative viability is on record?
A: 0.31

Q: NCI-H2347 was tested. Which relative viability did it give?
A: 0.662

Q: Which relative viability does the source give for SK-LU-1 here?
A: 0.604

Q: Which relative viability does the source give for NCI-H1395 here?
A: 0.587

Same assay, conditions: first compound 1.265 µM

Q: With NCI-H2085 as the cell line, how does the relative viability read?
A: 0.518

Q: How did the relative viability turn out when Calu-6 was run?
A: 0.704

Q: Which relative viability does the source give for HCC-366 here?
A: 0.136

Q: Which relative viability does the source give for NCI-H1666 here?
A: 0.584

Q: Which relative viability does the source give for NCI-H596 here?
A: 0.428

Q: With LK-2 as the cell line, how does the relative viability read?
A: 0.619

Q: For NCI-H2087, which relative viability is on record?
A: 1.03

Q: How did the relative viability turn out when SK-MES-1 was run?
A: 0.308

Q: H3255 was tested. Which relative viability did it give?
A: 0.584

Q: COR-L23 was tested. Which relative viability did it give?
A: 0.732

Q: With COR-L 105 as the cell line, how does the relative viability read?
A: 0.474

Q: IA-LM was tested. Which relative viability did it give?
A: 0.196

Q: With LOU-NH91 as the cell line, how does the relative viability read?
A: 0.587

Q: NCI-H2170 was tested. Which relative viability did it give?
A: 0.301

Q: For NCI-H2405, which relative viability is on record?
A: 0.458

Q: HOP-62 was tested. Which relative viability did it give?
A: 0.554

Q: For HCC-44, which relative viability is on record?
A: 0.768

Q: How did the relative viability turn out when A549 was run?
A: 0.465

Q: With LU99A as the cell line, how does the relative viability read?
A: 0.305

Q: With BEN as the cell line, how does the relative viability read?
A: 0.608

Q: With HARA as the cell line, how does the relative viability read?
A: 0.518

Q: With HCC-78 as the cell line, how does the relative viability read?
A: 0.21

Q: How did the relative viability turn out when NCI-H322M was run?
A: 0.526

Q: LCLC-97TM1 was tested. Which relative viability did it give?
A: 0.21

Q: With NCI-H2009 as the cell line, how does the relative viability read?
A: 0.633

Q: How did the relative viability turn out when A-427 was run?
A: 0.716

Q: Which relative viability does the source give for NCI-H661 here?
A: 0.505

Q: For NCI-H1734, which relative viability is on record?
A: 0.472

Q: Which relative viability does the source give for NCI-H460 here?
A: 0.391

Q: For NCI-H2347, which relative viability is on record?
A: 0.649

Q: SK-LU-1 was tested. Which relative viability did it give?
A: 0.576

Q: With NCI-H1395 as the cell line, how does the relative viability read?
A: 0.673

Same assay, conditions: first compound 4 µM

Q: NCI-H2085 was tested. Which relative viability did it give?
A: 0.558

Q: How did the relative viability turn out when Calu-6 was run?
A: 0.367

Q: For HCC-366, which relative viability is on record?
A: 0.174

Q: How did the relative viability turn out when NCI-H1666 was run?
A: 0.321

Q: With NCI-H596 as the cell line, how does the relative viability read?
A: 0.393

Q: LK-2 was tested. Which relative viability did it give?
A: 0.533

Q: NCI-H2087 was tested. Which relative viability did it give?
A: 0.665

Q: With SK-MES-1 as the cell line, how does the relative viability read?
A: 0.23

Q: With H3255 as the cell line, how does the relative viability read?
A: 0.497

Q: COR-L23 was tested. Which relative viability did it give?
A: 0.643

Q: How did the relative viability turn out when COR-L 105 was run?
A: 0.386

Q: IA-LM was tested. Which relative viability did it give?
A: 0.106

Q: With LOU-NH91 as the cell line, how does the relative viability read?
A: 0.44

Q: How did the relative viability turn out when NCI-H2170 was run?
A: 0.302

Q: For NCI-H2405, which relative viability is on record?
A: 0.418

Q: With HOP-62 as the cell line, how does the relative viability read?
A: 0.669

Q: HCC-44 was tested. Which relative viability did it give?
A: 0.443

Q: For A549, which relative viability is on record?
A: 0.0705

Q: For LU99A, which relative viability is on record?
A: 0.358

Q: How did the relative viability turn out when BEN was run?
A: 0.507

Q: For HARA, which relative viability is on record?
A: 0.366

Q: With HCC-78 as the cell line, how does the relative viability read?
A: 0.236

Q: With NCI-H322M as the cell line, how does the relative viability read?
A: 0.475

Q: For LCLC-97TM1, which relative viability is on record?
A: 0.153

Q: Which relative viability does the source give for NCI-H2009 here?
A: 0.318

Q: How did the relative viability turn out when A-427 was run?
A: 0.654

Q: For NCI-H661, which relative viability is on record?
A: 0.313

Q: NCI-H1734 was tested. Which relative viability did it give?
A: 0.358

Q: Which relative viability does the source give for NCI-H460 here?
A: 0.33

Q: NCI-H2347 was tested. Which relative viability did it give?
A: 0.44

Q: For SK-LU-1, which relative viability is on record?
A: 0.343

Q: How did the relative viability turn out when NCI-H1395 was run?
A: 0.507
